Results taken from US20240051985A1, “METTL3 MODULATORS” (ACCENT THERAPEUTICS, INC., priority 2020, published 2024).

Tests used:
[1] = biological target: METTL3/METTL14 (Homo sapiens, UniProt Q86U44); assay: METTL3-14 standard enzyme assay (3H-SAM flashplate); conditions: Table 4; METTL3 biochemical assay
Procedure, shortened: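 METTL3/METTL14 (2.5 nM) preincubated 5 min, then reacted with 3′-biotinylated RNA UCUGGACUAAA (100 nM) and 3H-SAM (100 nM) for 30 min at ambient temperature in 20 mM HEPES pH 7.5, 50 mM KCl, 250 μM MgCl2, 1 mM DTT. Quenched with 15 μM cold SAM; product captured on streptavidin flashplates, scintillation counted.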

[2] = biological target: PRMT5-MEP50 (Homo sapiens, UniProt O14744); assay: PRMT5 assay (3H-SAM flashplate); conditions: Table 4; PRMT5 biochemical assay
Procedure, shortened: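 PRMT5-MEP50 at 2.5 nM, preincubated 5 min with compound in 20 mM Tris-HCl pH 8.0, 1 mM DTT, 0.01% Tween at ambient temperature. Biotinylated acetylated histone H4 peptide (100 nM) and 3H-SAM (250 nM) react 60 min, quenched with 15 μM cold SAM; methylation captured on streptavidin flashplates and scintillation-counted.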

[3] = biological target: T1, FLT3 (Homo sapiens, UniProt P36888); assay: FLT3 Caliper assay; assay type: biochemical; conditions: Table 4; read-out: FLT3 Calipher assay IC50
T1 sequence (P36888 27-993): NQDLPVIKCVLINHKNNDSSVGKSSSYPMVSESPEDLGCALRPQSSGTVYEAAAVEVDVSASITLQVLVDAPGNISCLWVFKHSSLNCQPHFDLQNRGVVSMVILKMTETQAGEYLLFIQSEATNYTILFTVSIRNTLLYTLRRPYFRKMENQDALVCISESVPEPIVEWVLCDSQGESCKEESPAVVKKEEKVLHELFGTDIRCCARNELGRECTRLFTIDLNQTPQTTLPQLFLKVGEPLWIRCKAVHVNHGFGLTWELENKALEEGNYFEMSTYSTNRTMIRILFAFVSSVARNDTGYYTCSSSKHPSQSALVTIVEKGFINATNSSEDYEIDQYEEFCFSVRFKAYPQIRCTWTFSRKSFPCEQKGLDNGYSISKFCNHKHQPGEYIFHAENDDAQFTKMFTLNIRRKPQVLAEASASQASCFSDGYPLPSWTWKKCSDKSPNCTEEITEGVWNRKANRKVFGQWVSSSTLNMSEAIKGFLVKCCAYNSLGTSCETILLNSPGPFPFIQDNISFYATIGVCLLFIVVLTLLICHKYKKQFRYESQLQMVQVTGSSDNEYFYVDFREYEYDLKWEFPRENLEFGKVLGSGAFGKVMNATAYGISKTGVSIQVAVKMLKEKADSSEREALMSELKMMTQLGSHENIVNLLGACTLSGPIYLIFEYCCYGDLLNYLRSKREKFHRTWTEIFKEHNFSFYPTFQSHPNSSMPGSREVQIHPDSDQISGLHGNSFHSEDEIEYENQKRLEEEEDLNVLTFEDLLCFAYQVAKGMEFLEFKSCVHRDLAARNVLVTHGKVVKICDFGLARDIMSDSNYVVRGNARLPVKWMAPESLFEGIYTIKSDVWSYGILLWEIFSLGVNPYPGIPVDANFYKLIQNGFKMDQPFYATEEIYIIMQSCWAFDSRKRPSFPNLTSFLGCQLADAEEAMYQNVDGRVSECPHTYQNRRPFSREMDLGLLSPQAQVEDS
Method: (§1) FLT3/FLT3-ITD Caliper Assays
(§2) Assays were performed in a 20 μl-volume in 384-well polypropylene microplates (Perkin Elmer Proxiplate, cat. No. 6059480) at ambient temperature. Optimized 1× assay buffer was 50 mM Hepes pH 7.5, 2 mM DTT, 0.01% Tween, 0.01% BSA, 10 mM MgCl2. For compound screening FLT3 (final concentration, f.c.=0.9 nM) or FLT3-ITD (f.c.=7 nM) was added using a Multidrop Combi (ThermoFisher Scientific, Waltham, MA) and preincubated for 10 min. Reactions were started by adding fluorescein-peptide (sequence 5-FAM-EAIYAAPFAKKK-CONH2) (f.c.=300 μM) and ATP (FLT3 f.c.=97 μM FLT3-ITD f.c.=146 μM) substrates. Reactions proceeded for 60 minutes. The reactions were stopped with LabChip ProfilerPro Separation Buffer containing EDTA (f.c.=20 mM). The plates were read on a Caliper microfluidics reader (PerkinElmer, Waltham, MA).

[4] = biological target: T2, FLT3-ITD (Homo sapiens, UniProt P36888); assay: FLT3-ITD Caliper assay; assay type: biochemical; conditions: Table 4; read-out: FLT3-ITD Calipher assay IC50
T2 sequence (P36888 1-993): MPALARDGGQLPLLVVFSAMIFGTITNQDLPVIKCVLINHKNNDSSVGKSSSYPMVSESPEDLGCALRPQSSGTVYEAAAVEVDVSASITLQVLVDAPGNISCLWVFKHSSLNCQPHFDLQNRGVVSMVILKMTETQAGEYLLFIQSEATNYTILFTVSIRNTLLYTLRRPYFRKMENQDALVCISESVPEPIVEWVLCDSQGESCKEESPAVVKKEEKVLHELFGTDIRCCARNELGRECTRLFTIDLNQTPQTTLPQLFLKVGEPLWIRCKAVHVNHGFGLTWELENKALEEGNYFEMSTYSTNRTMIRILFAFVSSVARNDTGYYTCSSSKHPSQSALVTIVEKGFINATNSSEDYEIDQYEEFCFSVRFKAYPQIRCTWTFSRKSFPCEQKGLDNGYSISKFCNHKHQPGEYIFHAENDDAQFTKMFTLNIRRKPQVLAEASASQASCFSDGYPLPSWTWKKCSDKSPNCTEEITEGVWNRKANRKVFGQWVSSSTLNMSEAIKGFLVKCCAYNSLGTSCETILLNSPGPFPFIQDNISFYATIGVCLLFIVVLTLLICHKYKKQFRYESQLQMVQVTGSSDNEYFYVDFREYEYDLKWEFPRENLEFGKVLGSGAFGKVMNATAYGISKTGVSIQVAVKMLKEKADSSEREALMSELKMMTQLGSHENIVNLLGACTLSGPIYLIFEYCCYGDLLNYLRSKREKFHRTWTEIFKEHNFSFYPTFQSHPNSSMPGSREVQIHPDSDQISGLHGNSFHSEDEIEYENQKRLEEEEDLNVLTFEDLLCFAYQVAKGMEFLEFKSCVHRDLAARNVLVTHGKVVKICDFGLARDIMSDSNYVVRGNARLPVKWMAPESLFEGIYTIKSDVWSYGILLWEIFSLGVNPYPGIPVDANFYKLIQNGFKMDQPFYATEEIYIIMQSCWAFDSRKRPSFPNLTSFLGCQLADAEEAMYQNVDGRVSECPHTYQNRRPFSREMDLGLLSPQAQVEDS
Method: as §1, §2

Sequence of METTL3/METTL14 (Q86U44 whole entry, species assumed): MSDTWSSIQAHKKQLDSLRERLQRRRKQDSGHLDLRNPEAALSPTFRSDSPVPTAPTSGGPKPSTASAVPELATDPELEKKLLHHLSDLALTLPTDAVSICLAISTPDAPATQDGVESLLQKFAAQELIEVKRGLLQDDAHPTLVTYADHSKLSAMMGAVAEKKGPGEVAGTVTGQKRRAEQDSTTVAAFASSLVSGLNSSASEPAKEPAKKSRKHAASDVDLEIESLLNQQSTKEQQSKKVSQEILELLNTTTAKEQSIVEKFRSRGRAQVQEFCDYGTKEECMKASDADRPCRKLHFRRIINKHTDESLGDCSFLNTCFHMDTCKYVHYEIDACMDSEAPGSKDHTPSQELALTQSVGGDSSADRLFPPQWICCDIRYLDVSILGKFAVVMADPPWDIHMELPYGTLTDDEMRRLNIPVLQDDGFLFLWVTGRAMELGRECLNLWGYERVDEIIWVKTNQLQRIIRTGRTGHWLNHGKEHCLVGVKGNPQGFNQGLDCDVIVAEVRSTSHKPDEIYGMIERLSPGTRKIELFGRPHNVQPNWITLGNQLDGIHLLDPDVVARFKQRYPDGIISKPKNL
Sequence of METTL3/METTL14 (Q9HCE5 whole entry partner, species assumed): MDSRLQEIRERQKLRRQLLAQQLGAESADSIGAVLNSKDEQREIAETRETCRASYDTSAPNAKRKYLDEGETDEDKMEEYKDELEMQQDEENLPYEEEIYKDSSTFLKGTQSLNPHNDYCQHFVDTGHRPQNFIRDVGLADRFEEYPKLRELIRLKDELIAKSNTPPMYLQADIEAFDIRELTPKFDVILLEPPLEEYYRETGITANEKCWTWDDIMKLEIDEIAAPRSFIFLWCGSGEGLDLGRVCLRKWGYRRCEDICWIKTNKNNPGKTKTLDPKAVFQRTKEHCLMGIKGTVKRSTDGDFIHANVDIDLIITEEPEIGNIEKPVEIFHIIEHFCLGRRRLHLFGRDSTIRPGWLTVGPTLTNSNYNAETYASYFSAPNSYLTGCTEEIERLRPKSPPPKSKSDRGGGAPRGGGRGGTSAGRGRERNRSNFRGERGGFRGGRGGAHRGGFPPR
Sequence of PRMT5-MEP50 (O14744 whole entry): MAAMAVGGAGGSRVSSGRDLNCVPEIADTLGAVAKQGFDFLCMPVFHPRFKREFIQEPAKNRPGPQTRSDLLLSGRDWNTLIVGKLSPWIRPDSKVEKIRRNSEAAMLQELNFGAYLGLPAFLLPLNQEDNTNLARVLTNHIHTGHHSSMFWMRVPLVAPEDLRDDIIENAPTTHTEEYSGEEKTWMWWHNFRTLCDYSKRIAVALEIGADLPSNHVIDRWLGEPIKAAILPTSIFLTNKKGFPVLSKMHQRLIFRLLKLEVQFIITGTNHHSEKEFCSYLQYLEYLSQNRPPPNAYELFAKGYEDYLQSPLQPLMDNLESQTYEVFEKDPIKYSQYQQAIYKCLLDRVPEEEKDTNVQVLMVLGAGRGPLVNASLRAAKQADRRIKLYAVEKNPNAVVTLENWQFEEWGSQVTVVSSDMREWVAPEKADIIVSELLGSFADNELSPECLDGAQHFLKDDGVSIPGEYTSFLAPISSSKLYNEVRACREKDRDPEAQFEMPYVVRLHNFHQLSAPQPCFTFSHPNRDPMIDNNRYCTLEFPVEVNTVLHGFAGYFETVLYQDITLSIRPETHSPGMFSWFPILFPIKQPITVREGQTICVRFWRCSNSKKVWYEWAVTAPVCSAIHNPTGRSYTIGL
Sequence of PRMT5-MEP50 (Q9BQA1 whole entry partner): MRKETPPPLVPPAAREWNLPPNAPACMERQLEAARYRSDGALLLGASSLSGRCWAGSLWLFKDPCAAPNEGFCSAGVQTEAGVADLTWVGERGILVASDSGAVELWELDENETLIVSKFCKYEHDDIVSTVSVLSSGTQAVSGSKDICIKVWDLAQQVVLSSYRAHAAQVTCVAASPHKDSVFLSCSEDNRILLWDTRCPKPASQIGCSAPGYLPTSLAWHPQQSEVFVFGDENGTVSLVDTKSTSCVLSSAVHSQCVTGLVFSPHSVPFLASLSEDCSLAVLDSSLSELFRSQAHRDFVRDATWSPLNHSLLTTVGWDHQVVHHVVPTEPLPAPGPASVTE

Row | SMILES | IC50 [1] [nM] | IC50 [2] [nM] | IC50 [3] [nM] | IC50 [4] [nM]
1 | CCNc1cc(CNC(=O)[C@H]2O[C@@H](n3cc(-c4ccn(C)n4)c4c(N)ncnc43)[C@H](O)[C@@H]2O)ccn1 [Compound I-226] | 100 to 1000 | 100 to 1000 | ≥ 1000 | ≥ 1000
2 | Nc1ncnc2c1ccn2[C@@H]1O[C@H](C(=O)Nc2ccc3ccc(N4CCC4)nc3c2)[C@@H](O)[C@@H]1F [Compound I-34, (2S,3R,4S,5R)-5-{4-amino-7H-pyrrolo[2,3-d]pyrimidin-7-yl}-N-[2-(azetidin-1-yl)quinolin-7-yl]-4-fluoro-3-hydroxyoxolane-2-carboxamide] | 10 to 100 | ≥ 1000 | ≥ 1000 | ≥ 1000
3 | Cn1ccc(-c2cn([C@@H]3O[C@H](C(=O)N[C@H]4CCc5nc(N)sc5C4)[C@@H](O)[C@H]3O)c3ncnc(N)c23)n1 [Compound I-197] | 100 to 1000 | ≥ 1000 | ≥ 1000 | ≥ 1000
4 | COc1cccc(NC(=O)[C@H]2O[C@@H](n3cc(-c4ccn(C)n4)c4c(N)ncnc43)[C@H](O)[C@@H]2O)c1 [Compound I-157] | ≥ 1000 | 100 to 1000 | ≥ 1000 | ≥ 1000
5 | CCNc1ccnc(NC(=O)[C@H]2O[C@@H](n3cc(-c4ccn(C)n4)c4c(N)ncnc43)[C@H](O)[C@@H]2O)n1 [Compound I-36] | ≥ 1000 | 100 to 1000 | ≥ 1000 | ≥ 1000
6 | Cn1ccc(-c2cn([C@@H]3O[C@H](C(=O)Nc4cc(NCC5CC5)ccn4)[C@@H](O)[C@H]3O)c3ncnc(N)c23)n1 [Compound I-163] | 100 to 1000 | 10 to 100 | ≥ 1000 | ≥ 1000
7 | Cn1ccc(-c2cn([C@@H]3O[C@H](C(=O)Nc4cc(NCC(F)F)ccn4)[C@@H](O)[C@H]3O)c3ncnc(N)c23)n1 [Compound I-169] | 100 to 1000 | 100 to 1000 | ≥ 1000 | ≥ 1000
8 | CNc1nc2ccc(NC(=O)[C@H]3O[C@@H](n4cc(-c5ccn(C)n5)c5c(N)ncnc54)[C@H](O)[C@@H]3O)cc2[nH]1 [Compound I-142] | < 10 | < 10 | ≥ 1000 | ≥ 1000
9 | Cn1ccc(-c2cn([C@@H]3O[C@H](C(=O)NCc4cc(F)cc(F)c4)[C@@H](O)[C@H]3O)c3ncnc(N)c23)n1 [Compound I-191] | 100 to 1000 | 100 to 1000 | ≥ 1000 | ≥ 1000
10 | Cn1ccc(-c2cn([C@@H]3O[C@H](C(=O)NCCc4cccnc4)[C@@H](O)[C@H]3O)c3ncnc(N)c23)n1 [Compound I-160] | ≥ 1000 | 10 to 100 | ≥ 1000 | ≥ 1000

The next lines start with the values.

Row | IC50 [1] [nM] | IC50 [2] [nM] | IC50 [3] [nM] | IC50 [4] [nM] | SMILES
11 | ≥ 1000 | ≥ 1000 | 100 to 1000 | 100 to 1000 | Cn1ccc(-c2cn([C@@H]3O[C@H](C(=O)Nc4cc[nH]n4)[C@@H](O)[C@H]3O)c3ncnc(N)c23)n1 [Compound I-170]
12 | ≥ 1000 | ≥ 1000 | ≥ 1000 | ≥ 1000 | Cn1ccc(-c2cn([C@@H]3O[C@H](C(=O)N[C@@H]4CCC(=O)NC4)[C@@H](O)[C@H]3O)c3ncnc(N)c23)n1 [Compound I-180]
13 | 100 to 1000 | 100 to 1000 | ≥ 1000 | ≥ 1000 | Cn1ccc(-c2cn([C@@H]3O[C@H](C(=O)N4CCNCC4)[C@@H](O)[C@H]3O)c3ncnc(N)c23)n1 [Compound I-176]
14 | ≥ 1000 | ≥ 1000 | ≥ 1000 | ≥ 1000 | CC(=O)N1CCC(CNC(=O)[C@H]2O[C@@H](n3cc(-c4ccn(C)n4)c4c(N)ncnc43)[C@H](O)[C@@H]2O)CC1 [Compound I-227]
15 | ≥ 1000 | ≥ 1000 | ≥ 1000 | ≥ 1000 | Cn1ccc(-c2cn([C@@H]3O[C@H](C(=O)NCC#N)[C@@H](O)[C@H]3O)c3ncnc(N)c23)n1 [Compound I-229]
16 | ≥ 1000 | 100 to 1000 | ≥ 1000 | ≥ 1000 | Cn1ccc(-c2cn([C@@H]3O[C@H](C(=O)NN4CCCCC4)[C@@H](O)[C@H]3O)c3ncnc(N)c23)n1 [Compound I-199]
17 | ≥ 1000 | ≥ 1000 | ≥ 1000 | ≥ 1000 | Cn1ccc(-c2cn([C@@H]3O[C@H](C(=O)N4CCNC(=O)C4)[C@@H](O)[C@H]3O)c3ncnc(N)c23)n1 [Compound I-204]
18 | ≥ 1000 | 100 to 1000 | ≥ 1000 | ≥ 1000 | Cn1ccc(-c2cn([C@@H]3O[C@H](C(=O)NC4CCOCC4)[C@@H](O)[C@H]3O)c3ncnc(N)c23)n1 [Compound I-182]
19 | 100 to 1000 | 10 to 100 | ≥ 1000 | ≥ 1000 | Cn1ccc(-c2cn([C@@H]3O[C@H](C(=O)Nc4cc(N5CCC5)ccn4)[C@@H](O)[C@H]3O)c3ncnc(N)c23)n1 [Compound I-168]
20 | 100 to 1000 | 10 to 100 | ≥ 1000 | ≥ 1000 | Cn1ccc(-c2cn([C@@H]3O[C@H](C(=O)Nc4cccnc4)[C@@H](O)[C@H]3O)c3ncnc(N)c23)n1 [Compound I-156]
